Laboratory results: the supplement of paper PMC11208160

test: recombinant UMI read abundance after kanamycin selection (control-corrected) (log10(CPM+1)); higher = more efficient recombination; extreme values may be limits of the assay; sequences stand for … in AGTGCAGAGAAAATCGGCCAGTTTTCTCTGCCTGCAGTCCGCATGCCGTGGGACCCCTTGGGTTCTAACCTGTTGCCTAGATTTATGCAGCGGACTGCCTTTCTCCCAAAGTGATAAACCGG…AGGTTGGTTTCACT; site = the 11-nt donor
Method in brief: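 Values, expressed as log10(CPM+1), derive from recombinant UMI counts converted to CPM, averaged across replicates and scaled by control-derived factors. Plating was with IPTG (0.07 mM) plus kanamycin or unselected, two replicates each. The screen pooled donor and donor-binding-loop pairs for the IS621 bridge recombinase in Escherichia coli.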
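Also: IS621 bridge recombinase in Escherichia coli cells against a fixed T5 target plasmid.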

Row | Sequence | recombinant UMI read abundance (log10)
1 | CTGCTACCATGGACCGGTTTTCCCGGTAATCCGTATTTGCG (site CTGCTACCTAG) | 0
2 | CTGCTACCATGGACCGGTTTTCCCGGTAATCCGTATTTGCG (site CTGCTACCTCG) | 0.309
3 | CTGCTACCATGGACCGGTTTTCCCGGTAATCCGTATTTGCG (site CTGCTACCTGG) | 0
4 | CTGCTACCATGGACCGGTTTTCCCGGTAATCCGTATTTGCG (site CTGCTACCTTG) | 0
5 | CTGCTACCATGGACCGGTTTTCCCGGTAATCCGTATTTGTT (site CTGCTACCTAA) | 0.0134
6 | CTGCTACCATGGACCGGTTTTCCCGGTAATCCGTATTTGTT (site CTGCTACCTAC) | 0.0167
7 | CTGCTACCATGGACCGGTTTTCCCGGTAATCCGTATTTGTT (site CTGCTACCTAG) | 0
8 | CTGCTACCATGGACCGGTTTTCCCGGTAATCCGTATTTGTT (site CTGCTACCTAT) | 0.011
9 | CTGCTAGCATGGACCGGTTTTCCCGGTAATCCGTATTTGCT (site CTGCTAACTAG) | 0
10 | CTGCTAGCATGGACCGGTTTTCCCGGTAATCCGTATTTGCT (site CTGCTACCTAG) | 0
11 | CTGCTAGCATGGACCGGTTTTCCCGGTAATCCGTATTTGCT (site CTGCTAGCTAG) | 0
12 | CTGCTAGCATGGACCGGTTTTCCCGGTAATCCGTATTTGCT (site CTGCTATCTAG) | 0
13 | CTGCTATCATGGACCGGTTTTCCCGGTAATCCGTATTTGCT (site CTGCTAACTAG) | 0.708
14 | CTGCTATCATGGACCGGTTTTCCCGGTAATCCGTATTTGCT (site CTGCTACCTAG) | 0
15 | CTGCTATCATGGACCGGTTTTCCCGGTAATCCGTATTTGCT (site CTGCTAGCTAG) | 0.0179
16 | CTGCTATCATGGACCGGTTTTCCCGGTAATCCGTATTTGCT (site CTGCTATCTAG) | 2.33
17 | CTGCTGCCATGGACCGGTTTTCCCGGTAATCCGTATTTGCT (site CTGCTACCTAG) | 0.00624
18 | CTGCTGCCATGGACCGGTTTTCCCGGTAATCCGTATTTGCT (site CTGCTCCCTAG) | 0.506
19 | CTGCTGCCATGGACCGGTTTTCCCGGTAATCCGTATTTGCT (site CTGCTGCCTAG) | 1.22
20 | CTGCTGCCATGGACCGGTTTTCCCGGTAATCCGTATTTGCT (site CTGCTTCCTAG) | 0
21 | CTGCTTCCATGGACCGGTTTTCCCGGTAATCCGTATTTGCT (site CTGCTACCTAG) | 0
22 | CTGCTTCCATGGACCGGTTTTCCCGGTAATCCGTATTTGCT (site CTGCTCCCTAG) | 0.807
23 | CTGCTTCCATGGACCGGTTTTCCCGGTAATCCGTATTTGCT (site CTGCTGCCTAG) | 0.00367

Row | Sequence | recombinant UMI read abundance (log10)
24 | CTGCTTCCATGGACCGGTTTTCCCGGTAATCCGTATTTGCT (site CTGCTTCCTAG) | 1.73
25 | CTGGAACCATGGACCGGTTTTCCCGGTAATCCGTATTTGAT (site CAGGAACCTAT) | 0
26 | CTGGAACCATGGACCGGTTTTCCCGGTAATCCGTATTTGAT (site CCGGAACCTAT) | 0
27 | CTGGAACCATGGACCGGTTTTCCCGGTAATCCGTATTTGAT (site CGGGAACCTAT) | 0
28 | CTGGAACCATGGACCGGTTTTCCCGGTAATCCGTATTTGAT (site CTGGAACCTAT) | 0
29 | CTGGAACCATGGACCGGTTTTCCCGGTAATCCGTATTTGCA (site CTGGAAACTTG) | 0
30 | CTGGAACCATGGACCGGTTTTCCCGGTAATCCGTATTTGCA (site CTGGAACCTTG) | 0
31 | CTGGAACCATGGACCGGTTTTCCCGGTAATCCGTATTTGCA (site CTGGAAGCTTG) | 0.00806
32 | CTGGAACCATGGACCGGTTTTCCCGGTAATCCGTATTTGCA (site CTGGAATCTTG) | 2.36
33 | CTGGACACATGGACCGGTTTTCCCGGTAATCCGTATTTGCA (site CTGGAAACTTG) | 0.462
34 | CTGGACACATGGACCGGTTTTCCCGGTAATCCGTATTTGCA (site CTGGACACTTG) | 2.59
35 | CTGGACACATGGACCGGTTTTCCCGGTAATCCGTATTTGCA (site CTGGAGACTTG) | 0.00455
36 | CTGGACACATGGACCGGTTTTCCCGGTAATCCGTATTTGCA (site CTGGATACTTG) | 1.66
37 | CTGGGCCCATGGACCGGTTTTCCCGGTAATCCGTATTTGCC (site CTGGGCCCTGG) | 0
38 | CTGGTAACATGGACCGGTTTTCCCGGTAATCCGTATTTGCA (site CTGGAAACTTG) | 1.03
39 | CTGGTAACATGGACCGGTTTTCCCGGTAATCCGTATTTGCA (site CTGGCAACTTG) | 0.197
40 | CTGGTAACATGGACCGGTTTTCCCGGTAATCCGTATTTGCA (site CTGGGAACTTG) | 0
41 | CTGGTAACATGGACCGGTTTTCCCGGTAATCCGTATTTGCA (site CTGGTAACTTG) | 2.06
42 | CTGGTATCATGGACCGGTTTTCCCGGTAATCCGTATTTGAC (site CTAGTATCTGT) | 3.16
43 | CTGGTATCATGGACCGGTTTTCCCGGTAATCCGTATTTGAC (site CTCGTATCTGT) | 0
44 | CTGGTATCATGGACCGGTTTTCCCGGTAATCCGTATTTGAC (site CTGGTATCTGT) | 3.22
45 | CTGGTATCATGGACCGGTTTTCCCGGTAATCCGTATTTGAC (site CTTGTATCTGT) | 0.816
46 | CTGGTCGCATGGACCGGTTTTCCCGGTAATCCGTATTTGCA (site CTGGTCGCTTG) | 2.01

Row | Sequence | recombinant UMI read abundance (log10)
47 | CTGTACCCATGGACCGGTTTTCCCGGTAATCCGTATTTGAG (site CTGTACCCTCT) | 0.00463
48 | CTGTCAGCATGGACCGGTTTTCCCGGTAATCCGTATTTGGT (site CTGTCAGCTAC) | 0.563
49 | CTGTCCTCATGGACCGGTTTTCCCGGTAATCCGTATTTGTT (site CTGTCCTCTAA) | 1.92
50 | CTGTCGACATGGACCGGTTTTCCCGGTAATCCGTATTTGGT (site CTGTCGACTAC) | 0.884
51 | CTGTCGGCATGGACCGGTTTTCCCGGTAATCCGTATTTGCC (site CTGTCGGCTGG) | 0
52 | CTGTCTCCATGGACCGGTTTTCCCGGTAATCCGTATTTGAG (site CTGTCTCCTCT) | 0.0686
53 | CTGTCTTCATGGACCGGTTTTCCCGGTAATCCGTATTTGGG (site CTGTCTTCTCC) | 0.0096
54 | CTGTGAACATGGACCGGTTTTCCCGGTAATCCGTATTTGTT (site CTGTGAACTAA) | 1.15
55 | CTTACTACATGGACCGGTTTTCCCGGTAATCCGTATTTGGA (site CTTACTACTTC) | 0.205
56 | CTTAGGCCATGGACCGGTTTTCCCGGTAATCCGTATTTGAA (site CTTAGGCCTTT) | 0.104
57 | CTTATCTCATGGACCGGTTTTCCCGGTAATCCGTATTTGTA (site CTTATCTCTTA) | 2.27
58 | CTTATCTCATGGACCGGTTTTCCCGGTAATCCGTATTTGTA (site CTTCTCTCTTA) | 0.475
59 | CTTATCTCATGGACCGGTTTTCCCGGTAATCCGTATTTGTA (site CTTGTCTCTTA) | 0.606
60 | CTTATCTCATGGACCGGTTTTCCCGGTAATCCGTATTTGTA (site CTTTTCTCTTA) | 0.00641
61 | CTTCACACATGGACCGGTTTTCCCGGTAATCCGTATTTGTA (site CTTCACACTTA) | 0.61
62 | CTTCCGCCATGGACCGGTTTTCCCGGTAATCCGTATTTGAG (site CTTCCGCCTCT) | 0.0295
63 | CTTCGACCATGGACCGGTTTTCCCGGTAATCCGTATTTGCA (site CTTCGACCTTG) | 0
64 | CTTCGAGCATGGACCGGTTTTCCCGGTAATCCGTATTTGTT (site CTTCGAGCTAA) | 1.59
65 | CTTCGTCCATGGACCGGTTTTCCCGGTAATCCGTATTTGTT (site CTTCGTCCTAA) | 0.0114
66 | CTTCTATCATGGACCGGTTTTCCCGGTAATCCGTATTTGTA (site CTTCTATCTTA) | 1.62
67 | CTTCTATCATGGACCGGTTTTCCCGGTAATCCGTATTTGTA (site CTTCTCTCTTA) | 0.0109
68 | CTTCTATCATGGACCGGTTTTCCCGGTAATCCGTATTTGTA (site CTTCTGTCTTA) | 0
